{"source": "ChEMBL document CHEMBL1134030", "about": "“Synthesis and structure-activity relationships of guanine analogues as phosphodiesterase 7 (PDE7) inhibitors” (Bioorg Med Chem Lett, 2001)", "key": {"Phosphodiesterase 7 [1]": {"biological_target": "T1, Phosphodiesterase 7 (Homo sapiens, UniProt Q13946+Q9NP56)", "T1 sequence (Q13946 whole entry, looked up)": "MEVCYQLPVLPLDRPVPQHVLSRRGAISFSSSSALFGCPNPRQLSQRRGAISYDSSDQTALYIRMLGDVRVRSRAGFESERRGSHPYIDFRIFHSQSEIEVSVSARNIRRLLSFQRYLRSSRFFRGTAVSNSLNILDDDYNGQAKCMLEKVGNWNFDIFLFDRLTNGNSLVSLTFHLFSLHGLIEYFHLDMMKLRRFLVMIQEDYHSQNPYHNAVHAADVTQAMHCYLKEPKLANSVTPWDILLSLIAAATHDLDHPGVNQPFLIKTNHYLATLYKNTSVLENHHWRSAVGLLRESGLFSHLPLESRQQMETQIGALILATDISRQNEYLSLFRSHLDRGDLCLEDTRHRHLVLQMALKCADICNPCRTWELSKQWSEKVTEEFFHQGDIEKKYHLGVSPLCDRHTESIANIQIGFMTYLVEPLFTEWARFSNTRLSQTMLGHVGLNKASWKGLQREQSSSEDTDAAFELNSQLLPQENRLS", "T1 sequence (Q9NP56 whole entry, looked up)": "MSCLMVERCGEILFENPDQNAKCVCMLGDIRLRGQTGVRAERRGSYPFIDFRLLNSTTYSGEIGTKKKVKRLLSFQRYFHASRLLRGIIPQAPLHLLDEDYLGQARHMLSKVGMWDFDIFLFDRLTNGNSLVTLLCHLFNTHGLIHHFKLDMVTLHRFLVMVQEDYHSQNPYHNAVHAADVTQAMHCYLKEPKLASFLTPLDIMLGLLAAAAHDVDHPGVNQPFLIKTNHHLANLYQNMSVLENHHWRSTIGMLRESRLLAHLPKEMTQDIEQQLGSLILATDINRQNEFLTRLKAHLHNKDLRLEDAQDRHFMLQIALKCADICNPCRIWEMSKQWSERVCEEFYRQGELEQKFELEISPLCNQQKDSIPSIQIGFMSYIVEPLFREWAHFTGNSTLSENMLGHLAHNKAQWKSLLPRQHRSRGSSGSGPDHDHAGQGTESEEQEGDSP", "assay": "Inhibition of human Phosphodiesterase 7 of HUT-78 cells", "format": "cell-based"}, "[2]": {"biological_target": "T2, Phosphodiesterase 3 (Homo sapiens) (UniProt Q14432+Q13370)", "assay": "Inhibition of guinea pig Phosphodiesterase 3 (PDE3) at 10 uM", "format": "protein assay", "conditions": "Cavia porcellus, target entry is the homologue from another species"}, "[3]": {"biological_target": "T3, Phosphodiesterase 4 (Homo sapiens) (UniProt P27815+Q08499+Q07343+Q08493)", "assay": "Inhibition of guinea pig Phosphodiesterase 4 at 10 uM", "format": "protein assay", "conditions": "Cavia porcellus, target entry is the homologue from another species"}, "[4]": {"biological_target": "T3, Phosphodiesterase 4 (Homo sapiens)", "assay": "Inhibition of guinea pig Phosphodiesterase 4 at 10 uM (inactive)", "format": "protein assay", "conditions": "Cavia porcellus, target entry is the homologue from another species"}, "Phosphodiesterase 7 [5]": {"biological_target": "T1, Phosphodiesterase 7", "assay": "Inhibition of human Phosphodiesterase 7 of HUT-78 cells at 10 uM (inactive)", "format": "cell-based"}, "Phosphodiesterase 7 [6]": {"biological_target": "T1, Phosphodiesterase 7", "assay": "Inhibition of human Phosphodiesterase 7 of HUT-78 cells at 10 uM", "format": "cell-based"}, "[7]": {"biological_target": "T2, Phosphodiesterase 3 (Homo sapiens)", "assay": "Inhibition of guinea pig Phosphodiesterase 3 at 10 uM", "format": "protein assay", "conditions": "Cavia porcellus, target entry is the homologue from another species"}}, "note": "The source made the active and inactive calls.", "data": [{"smiles": "Nc1nc(O)c2nc(Br)n(C3CCCc4ccccc43)c2n1", "note": "(centres undefined)", "values": [{"measurement": "IC50", "setting": "Phosphodiesterase 7 [1]", "value": 4.88, "unit": "µM"}, {"measurement": "inhibition", "setting": "[2]", "value": 30, "unit": "%"}, {"measurement": "inhibition", "setting": "[3]", "value": 15, "unit": "%"}]}, {"smiles": "COc1ccc2c(c1)C(n1c(Br)nc3c(O)nc(N)nc31)CCC2", "note": "(centres undefined)", "values": [{"measurement": "IC50", "setting": "Phosphodiesterase 7 [1]", "value": 4.22, "unit": "µM"}, {"measurement": "inhibition", "setting": "[3]", "value": 20, "unit": "%"}]}, {"smiles": "Oc1ncnc2c1ncn2C1CCCc2ccccc21", "note": "(centres undefined)", "values": [{"measurement": "inhibition", "setting": "[4]", "value": "inactive"}, {"measurement": "inhibition", "setting": "Phosphodiesterase 7 [5]", "value": "inactive"}]}, {"smiles": "Nc1nc(O)c2nc(Br)n(C3CCc4ccccc43)c2n1", "note": "(centres undefined)", "values": [{"measurement": "inhibition", "setting": "[3]", "value": 27, "unit": "%"}, {"measurement": "inhibition", "setting": "Phosphodiesterase 7 [6]", "value": 22, "unit": "%"}]}, {"smiles": "Nc1nc(O)c2ncn(C3CCCc4ccccc43)c2n1", "note": "(centres undefined)", "values": [{"measurement": "inhibition", "setting": "[3]", "value": 7, "unit": "%"}, {"measurement": "inhibition", "setting": "Phosphodiesterase 7 [6]", "value": 4, "unit": "%"}]}, {"smiles": "Nc1nc(O)c2nc(Br)n(C3CCCCc4ccc(F)cc43)c2n1", "note": "(centres undefined)", "values": [{"measurement": "inhibition", "setting": "[3]", "value": 13, "unit": "%"}, {"measurement": "inhibition", "setting": "Phosphodiesterase 7 [6]", "value": 10, "unit": "%"}]}, {"smiles": "Nc1nc(O)c2nc(Br)n(C3CCCc4cccc(Br)c43)c2n1", "note": "(centres undefined)", "values": [{"measurement": "IC50", "setting": "Phosphodiesterase 7 [1]", "value": 1.31, "unit": "µM"}, {"measurement": "inhibition", "setting": "[3]", "value": 10, "unit": "%"}, {"measurement": "inhibition", "setting": "[7]", "value": 14, "unit": "%"}]}, {"smiles": "Nc1nc(O)c2nc(Br)n(C3CCCc4ccc([N+](=O)[O-])cc43)c2n1", "note": "(centres undefined)", "values": [{"measurement": "IC50", "setting": "Phosphodiesterase 7 [1]", "value": 2.31, "unit": "µM"}, {"measurement": "inhibition", "setting": "[3]", "value": 42, "unit": "%"}, {"measurement": "inhibition", "setting": "[7]", "value": 19, "unit": "%"}]}]}
